The values below come from patent US6627732B1, “Glutathione derivatives and their dosage forms” (Teijin Limited, priority 1998, dated 2003).

Structures are written as SMILES.

This test concerns normal healthy rats. Put plainly: Neutrophil counts and bone marrow cells in normal healthy rats (Example 28). The format is in vivo, rat. The method, then: The effects of increasing neutrophil counts of the compound of Example 4 in normal healthy rats were studied.
(1) Male SD rats, 6-week old, purchased from Nippon SLC were used. The animal feed (MF, manufactured by Oriental Yeast Co., Ltd.) and drinking water (well water treated with 0.4±0.2 ppm hypochlorous acid) were given ad libitum during the period of the experiment. The animals were each housed in a hanging-type rat cage (manufactured by Nippon Cage K.K.) and kept at a temperature of 24±2° C. and a humidity of 55±5%.
(2) The glutathione derivative of Example 4 combined with the fat emulsion at 10, 20, or 30 mg/kg-body weight/day, and the fat emulsion alone as the negative control were each repeatedly administered into the tail vein for 6 days from day 1 to 6 of the experiment. Dosage was 10 ml/kg-body weight/day. From day 1 to 10 of the experiment, blood was drawn everyday from the jugular vein and the EDTA-2K-treated blood was obtained. Then the blood was used to determine the neutrophil counts using a general chemistry test instrument (Technicon H-1E, manufactured by Bayer-Sankyo K.K.).
Part of the negative control group on days 1, 7, and 10, and part of the Example 4—the fat emulsion 30 mg/kg-body weight/day administration group on days 3, 5, 7, and 10 of the experiment were bled to death from the abdominal aorta under anesthesia by the intraperitoneal administration of pentobarbital sodium. Then, the femoral bone marrow was harvested, smears were prepared therefrom using the wedge method, stained by the May-Giemsa stain, and examined under a microscope to determine the fractionation of nucleated bone marrow cells.

With `CCCCCCCCCCCCCCCCOC(=O)[C@@H](N)CCC(=O)N[C@@H](CSCc1ccccc1)C(=O)N[C@@H](C(=O)OCC)c1ccccc1.Cl` [Example 4, Glu(Cys(Bzl)-D-Phg-OEt)-O(Hexadecyl)hydrochloride], the “Neutrophil counts in the peripheral blood relative to the negative control group” value (fat emulsion 30 mg/kg-body weight/day iv, days 1-6, days 2 and 5-8, significance 5%-1%) was “statistically significant increase in the neutrophil counts”. For the same molecule, the “Neutrophilic myelocytic cells having the dividing ability in bone marrow” value (fat emulsion 30 mg/kg-body weight/day, days 3 and 5) is listed as “increased”. Also, the “Neutrophilic myelocytic cells having no dividing ability in bone marrow” value (fat emulsion 30 mg/kg-body weight/day, maximum on day 7) is “increases were observed on day 5, 7, and 10”.
